From PMC12624743 (ACS Infectious Diseases, 2025)
Residue numbers refer to the chain shown, from its start.

Legend:
Assay in all cases: biochemical
[1] = test system: N. gonorrhoeae topoisomerase IV ParC^S88P; settings: ParC S88P vs WT topoisomerase IV
Protocol: (§1) Some experiments replaced MgCl2 with an equivalent concentration of CaCl2 (10 mM), or 1.5 mM ATP was added to assay mixtures.
(§2) Reactions were incubated at 37 °C for 30 min with WT and mutant (GyrA^D90N, GyrA^A92T, GyrA^S91F, GyrA^D95G, or GyrA^S91F/D95G) N. gonorrhoeae gyrase, 10 min with WT N. gonorrhoeae topoisomerase IV, and 20 min with mutant (ParC^D86N, ParC^S88P, ParC^S87N, or ParC^E91G) N. gonorrhoeae topoisomerase IV. Enzyme-DNA cleavage complexes were trapped by adding 2 μL of 5% SDS followed by 2 μL of 250 mM EDTA (pH 8.0). Proteinase K was added (2 μL of a 0.8 mg/mL solution), and reaction mixtures were incubated at 45 °C for 30 min to digest the enzyme. Samples were mixed with 2 μL of loading buffer and heated at 45 °C for 2 min prior to electrophoresis in 1% agarose gels in 40 mM Tris-acetate (pH 8.3), and 2 mM EDTA containing 0.5 μg/mL ethidium bromide. DNA bands were visualized by midrange ultraviolet light and quantified using an Alpha Innotech digital imaging system (Protein Simple). Single-stranded DNA cleavage was monitored by the conversion of negatively supercoiled to nicked plasmid molecules.

[2] = target: N. gonorrhoeae topoisomerase IV ParC^E91G (Neisseria gonorrhoeae, UniProt P48374, E91G)
Protocol: as §1, §2

[3] = test system: N. gonorrhoeae topoisomerase IV ParC^S87N; settings: ParC S87N vs WT
Protocol: as §1, §2

[4] = target: T1, N. gonorrhoeae topoisomerase IV ParC^S88P (Neisseria gonorrhoeae, UniProt P48374, S88P)
T1 sequence (P48374 1-768 S88P): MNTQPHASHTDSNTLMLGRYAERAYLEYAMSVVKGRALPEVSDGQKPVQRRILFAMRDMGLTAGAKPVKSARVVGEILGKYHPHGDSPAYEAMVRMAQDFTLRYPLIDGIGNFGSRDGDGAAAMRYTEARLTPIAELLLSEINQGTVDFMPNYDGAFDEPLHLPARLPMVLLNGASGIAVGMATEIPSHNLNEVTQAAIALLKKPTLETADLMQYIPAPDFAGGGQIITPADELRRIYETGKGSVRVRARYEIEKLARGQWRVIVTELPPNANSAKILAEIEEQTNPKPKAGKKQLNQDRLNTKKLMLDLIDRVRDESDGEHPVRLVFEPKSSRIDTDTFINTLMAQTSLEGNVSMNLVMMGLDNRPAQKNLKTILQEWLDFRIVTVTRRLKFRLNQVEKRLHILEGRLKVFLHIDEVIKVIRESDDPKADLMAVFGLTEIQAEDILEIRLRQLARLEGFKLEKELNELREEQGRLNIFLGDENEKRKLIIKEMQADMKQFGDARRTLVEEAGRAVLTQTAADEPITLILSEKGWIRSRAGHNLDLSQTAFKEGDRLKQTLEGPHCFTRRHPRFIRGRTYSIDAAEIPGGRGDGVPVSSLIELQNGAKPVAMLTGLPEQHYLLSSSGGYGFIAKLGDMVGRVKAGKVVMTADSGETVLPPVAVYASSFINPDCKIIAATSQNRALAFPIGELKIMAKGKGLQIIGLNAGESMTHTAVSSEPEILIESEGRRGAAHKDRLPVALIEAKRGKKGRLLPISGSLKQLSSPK
Protocol: as §1, §2

[5] = target: N. gonorrhoeae topoisomerase IV ParC^S87N (Neisseria gonorrhoeae, UniProt P48374, S87N)
Protocol: as §1, §2

[6] = target: T2, WT N. gonorrhoeae topoisomerase IV (Neisseria gonorrhoeae, UniProt P48374)
T2 sequence (P48374 1-768): T1 sequence (P48374 1-768 S88P) with P88S
Protocol: as §1, §2

[7] = test system: N. gonorrhoeae topoisomerase IV ParC^E91G; settings: ParC E91G vs WT
Protocol: as §1, §2

N. gonorrhoeae topoisomerase IV ParC^E91G (Neisseria gonorrhoeae, UniProt P48374, E91G), sequence (P48374 whole entry E91G): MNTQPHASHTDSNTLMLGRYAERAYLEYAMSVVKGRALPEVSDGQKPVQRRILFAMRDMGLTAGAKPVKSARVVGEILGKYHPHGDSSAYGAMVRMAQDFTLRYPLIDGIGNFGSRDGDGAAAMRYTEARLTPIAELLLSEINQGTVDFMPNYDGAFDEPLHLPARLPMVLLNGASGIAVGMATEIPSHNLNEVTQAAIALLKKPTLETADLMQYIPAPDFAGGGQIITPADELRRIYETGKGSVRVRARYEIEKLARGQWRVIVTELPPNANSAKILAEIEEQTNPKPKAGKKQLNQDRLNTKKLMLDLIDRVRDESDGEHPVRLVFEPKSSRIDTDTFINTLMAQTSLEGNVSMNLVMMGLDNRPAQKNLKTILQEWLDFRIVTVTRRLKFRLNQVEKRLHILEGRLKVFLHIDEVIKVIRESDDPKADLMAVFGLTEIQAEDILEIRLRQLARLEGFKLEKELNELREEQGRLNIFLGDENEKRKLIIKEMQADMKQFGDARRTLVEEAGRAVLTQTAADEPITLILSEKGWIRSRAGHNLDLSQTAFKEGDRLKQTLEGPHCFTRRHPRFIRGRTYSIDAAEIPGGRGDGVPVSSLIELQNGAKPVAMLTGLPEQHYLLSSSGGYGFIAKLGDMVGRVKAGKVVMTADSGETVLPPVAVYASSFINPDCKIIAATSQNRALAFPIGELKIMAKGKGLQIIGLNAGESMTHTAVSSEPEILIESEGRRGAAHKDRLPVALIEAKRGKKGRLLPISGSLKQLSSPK
N. gonorrhoeae topoisomerase IV ParC^S87N (Neisseria gonorrhoeae, UniProt P48374, S87N), sequence (P48374 whole entry S87N): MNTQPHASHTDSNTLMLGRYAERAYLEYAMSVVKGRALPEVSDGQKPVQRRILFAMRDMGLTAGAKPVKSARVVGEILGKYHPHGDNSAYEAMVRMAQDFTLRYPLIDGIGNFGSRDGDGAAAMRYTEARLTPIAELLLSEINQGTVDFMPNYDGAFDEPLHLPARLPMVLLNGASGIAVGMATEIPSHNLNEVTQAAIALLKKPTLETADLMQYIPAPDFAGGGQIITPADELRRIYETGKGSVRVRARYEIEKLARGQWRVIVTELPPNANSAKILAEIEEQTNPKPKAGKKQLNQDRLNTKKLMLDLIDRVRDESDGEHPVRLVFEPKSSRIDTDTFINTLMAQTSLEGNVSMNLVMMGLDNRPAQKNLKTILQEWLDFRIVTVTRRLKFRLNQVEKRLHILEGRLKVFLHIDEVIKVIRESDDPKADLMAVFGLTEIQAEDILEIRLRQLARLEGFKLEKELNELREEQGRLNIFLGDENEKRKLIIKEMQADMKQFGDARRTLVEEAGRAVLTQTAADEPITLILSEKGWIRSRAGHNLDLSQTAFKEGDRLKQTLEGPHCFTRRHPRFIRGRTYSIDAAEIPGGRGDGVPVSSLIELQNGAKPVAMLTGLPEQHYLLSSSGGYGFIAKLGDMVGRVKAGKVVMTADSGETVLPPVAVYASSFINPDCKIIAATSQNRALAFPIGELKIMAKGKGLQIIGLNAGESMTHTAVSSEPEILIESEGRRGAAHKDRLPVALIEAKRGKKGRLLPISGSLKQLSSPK

O=c1ccc2ncc(=O)n3c2n1C[C@H]3CN1CCC(NCc2cc3c(cn2)OCCC3)CC1 [gepotidacin]
more single-stranded DNA cleavage with mutant enzyme compared to WT [1]: ~40% | EC50 [2]: 200 nM | fold decrease of Adj-Max Cleavage vs WT [3]: ~4.2 fold | EC50 [4]: 200 nM | EC50 [5]: 600 nM | EC50 [6]: 600 ± 200 nM | effect of ATP on potency and maximal DNA cleavage ([6]; WT topoisomerase IV, 1.5 mM ATP): little effect | effect on double-stranded DNA breaks ([6]; WT topoisomerase IV, Mg2+ replaced with Ca2+): clear suppression | Adj-Max Cleavage, single-stranded DNA breaks ([6]; WT topoisomerase IV, adjusted for baseline cleavage): ~42.8% | additional enhancement of double-stranded DNA breaks above baseline ([6]; WT topoisomerase IV, up to 200 μM gepotidacin, up to 180 min): not observed | fold decrease of Adj-Max Cleavage vs WT [7]: ~3.2 fold
